According to US20260042755A1, “GPR6 INVERSE AGONISTS” (MapLight Therapeutics, Inc., priority 2022, published 2026):

Assays:
GPR3 = target: T1, GPR3 (Homo sapiens, UniProt P46089); experiment: GPR3 antagonist functional cAMP assay (LANCE Ultra cAMP TR-FRET, CHO cells stably expressing GPR3); type: cell-based
T1 construct: expressed in transfected cells; host or cells: CHO cells
Summary of the method: (§1)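 Stable CHO-GPR6 or CHO-GPR3 cells (10,000/well) in Krebs-Ringer buffer with 0.1% BSA and 150 μM Ro 20-1724 were exposed to compounds for 45 min at 37° C (0.1% DMSO). cAMP read by LANCE Ultra TR-FRET; IC50 from 4-parameter fit normalized to DMSO and reference compounds.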

GPR6 = target: T2, GPR6 (Homo sapiens, UniProt P46095); experiment: GPR6 antagonist functional cAMP assay (LANCE Ultra cAMP TR-FRET, CHO cells stably expressing GPR6); type: cell-based
T2 construct: expressed in transfected cells; host or cells: CHO cells
Summary of the method: as §1

[1] = CHO cells stably expressing GPR3, cAMP assay (Example 24)
[2] = CHO cells stably expressing GPR6, cAMP assay (Example 24)
[3] = procedure as described in Example 24
[4] = CHO cells stably expressing GPR3, cAMP assay
[5] = CHO cells stably expressing GPR6, cAMP assay

T1 sequence (P46089 whole entry, species assumed): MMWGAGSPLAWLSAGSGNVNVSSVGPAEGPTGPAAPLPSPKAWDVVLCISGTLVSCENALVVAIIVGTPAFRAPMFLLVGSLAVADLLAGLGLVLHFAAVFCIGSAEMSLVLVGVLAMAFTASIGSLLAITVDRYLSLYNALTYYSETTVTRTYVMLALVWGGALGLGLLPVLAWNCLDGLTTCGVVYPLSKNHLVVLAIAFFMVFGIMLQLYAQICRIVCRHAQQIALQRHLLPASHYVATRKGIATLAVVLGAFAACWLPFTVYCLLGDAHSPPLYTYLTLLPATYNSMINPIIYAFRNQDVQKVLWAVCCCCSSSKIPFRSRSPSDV
T2 sequence (P46095 whole entry): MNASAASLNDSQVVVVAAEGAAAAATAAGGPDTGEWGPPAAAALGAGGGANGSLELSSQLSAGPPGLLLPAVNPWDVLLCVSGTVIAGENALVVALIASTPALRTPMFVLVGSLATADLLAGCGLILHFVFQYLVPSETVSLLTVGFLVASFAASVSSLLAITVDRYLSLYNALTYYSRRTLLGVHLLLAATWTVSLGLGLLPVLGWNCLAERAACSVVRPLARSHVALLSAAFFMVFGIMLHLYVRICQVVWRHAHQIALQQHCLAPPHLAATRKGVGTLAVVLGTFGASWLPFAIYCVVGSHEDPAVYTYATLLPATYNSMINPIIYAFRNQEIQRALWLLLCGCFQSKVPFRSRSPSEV

| Compound | IC50 (GPR3; procedure of Example 24) [nM] | IC50 (GPR6; procedure of Example 24) [nM] | IC50 (GPR3; [1]) [nM] | IC50 (GPR6; [2]) [nM] | other results |
| --- | --- | --- | --- | --- | --- |
| Cn1cc(-c2nc3cnc(Cl)cc3nc2N2CCC(Oc3ccc(F)cc3F)CC2)cn1 [Compound 289, 7-chloro-2-(4-(2,4-difluorophenoxy)piperidin-1-yl)-3-(1-methyl-1H-pyrazol-4-yl)pyrido[3,4-b]pyrazine] | 1000 to 30000 | 1000 to 30000 | – | – | – |
| CC(C)(O)C(=O)N1CCc2nc(N3CCC(Oc4ccc(F)cc4F)CC3)c(-c3cn[nH]c3)nc2C1 [Compound 175, 1-{2-[4-(2,4-difluorophenoxy)piperidin-1-yl]-3-(1H-pyrazol-4-yl)-5H,6H,7H,8H-pyrido[3,4-b]pyrazin-6-yl}-2-hydroxy-2-methylpropan-1-one] | – | – | 1000 to 30000 | 100 to 1000 | – |
| CC(=O)N1CCc2nc(N3CCC(Oc4ccc(F)cc4F)CC3)c(-c3cccc(OC(C)C)n3)nc2C1 [Compound 39, 1-{2-[4-(2,4-difluorophenoxy)piperidin-1-yl]-3-[6-(propan-2-yloxy)pyridin-2-yl]-5H,6H,7H,8H-pyrido[3,4-b]pyrazin-6-yl}ethan-1-one] | – | – | – | – | IC50 (GPR3; [3]): 100 to 1000 nM; IC50 (GPR6; [3]): 1000 to 30000 nM |
| CC(C)(O)C(O)c1cc2nc(-c3cn[nH]c3)c(N3CCC(=Cc4ccc(F)cc4F)CC3)nc2cn1 (stereo not shown) [Compound 780, 1-(3-{4-[(2,4-difluorophenyl)methylene]-1-piperidyl}-2-(4-pyrazolyl)-1,4,6-triaza-7-naphthyl)-2-methyl-1,2-propanediol] | 100 to 1000 | < 100 | – | – | – |
| CC(=O)N1CCc2nc(N3CCN(Cc4c[nH]cn4)CC3)c(-c3cnn(C)c3)nc2C1 [Compound 548, 1-(2-{4-[(4-imidazolyl)methyl]-1-piperazinyl}-3-(1-methyl-4-pyrazolyl)-5,6,7,8-tetrahydro-1,4,6-triaza-6-naphthyl)-1-ethanone] | – | – | – | – | IC50 (GPR3; [4]): ≥ 30000 nM; IC50 (GPR6; [5]): ≥ 30000 nM |
| CCS(=O)(=O)N1CCc2nc(N3CCC(Oc4ccc(F)cc4F)CC3)c(-c3cn[nH]c3)nc2C1 [Compound 123, 4-(2,4-difluorophenoxy)-1-[6-(ethanesulfonyl)-3-(1H-pyrazol-4-yl)-5H,6H,7H,8H-pyrido[3,4-b]pyrazin-2-yl]piperidine] | – | – | 1000 to 30000 | 100 to 1000 | – |
| Cn1cc(-c2nc3cc([C@@H](O)C(C)(C)O)ncc3nc2N2CCC(=Cc3ccc(F)cc3F)CC2)cn1 (single isomer, unassigned) [Compound 763] | 100 to 1000 | < 100 | – | – | – |
| CNC(=O)c1cccc(-c2nc3c(nc2N2CCC(Oc4ccc(F)cc4F)CC2)CCN(C(C)=O)C3)n1 [Compound 132, 6-{6-acetyl-2-[4-(2,4-difluorophenoxy)piperidin-1-yl]-5H,6H,7H,8H-pyrido[3,4-b]pyrazin-3-yl}-N-methylpyridine-2-carboxamide] | – | – | 1000 to 30000 | 1000 to 30000 | – |
| CC(=O)OC1CCN(c2nc3c(nc2-c2cnn(C)c2)CN(Cc2ccccc2)CC3)C1 (stereo not shown) [Compound 495, 1-[6-benzyl-3-(1-methyl-4-pyrazolyl)-5,6,7,8-tetrahydro-1,4,6-triaza-2-naphthyl]-3-pyrrolidinyl acetate] | – | – | – | – | IC50 (GPR3; [4]): ≥ 30000 nM; IC50 (GPR6; [5]): 1000 to 30000 nM |
| COc1cnc(-c2nc3c(nc2N2CCC(Oc4ccc(F)cc4F)CC2)CCN(C(C)=O)C3)nc1 [Compound 191, 1-{2-[4-(2,4-difluorophenoxy)piperidin-1-yl]-3-(5-methoxypyrimidin-2-yl)-5H,6H,7H,8H-pyrido[3,4-b]pyrazin-6-yl}ethan-1-one] | – | – | 1000 to 30000 | 1000 to 30000 | – |
| CC(=O)N1CCc2nc(N3CCC4(CC3)CC4c3ccc(F)cc3F)c(-c3cnn(C)c3)nc2C1 (stereo not shown) [Compound 660, 1-(2-(1-(2,4-difluorophenyl)-6-azaspiro[2.5]octan-6-yl)-3-(1-methyl-1H-pyrazol-4-yl)-7,8-dihydropyrido[3,4-b]pyrazin-6(5H)-yl)ethan-1-one] | 1000 to 30000 | 1000 to 30000 | – | – | – |
| CC(=O)N1CCc2nc(N3CCN(Cc4cc(C#N)ccc4F)CC3)c(-c3cnn(C)c3)nc2C1 [Compound 357, 3-({4-[6-acetyl-3-(1-methyl-1H-pyrazol-4-yl)-5H,6H,7H,8H-pyrido[3,4-b]pyrazin-2-yl]piperazin-1-yl}methyl)-4-fluorobenzonitrile] | 1000 to 30000 | 1000 to 30000 | – | – | – |
| CC(C)(O)C(C)(O)c1cc2nc(-c3cnn(C(F)F)c3)c(N3CCN(Cc4ccccc4F)CC3)nc2cn1 (single isomer, unassigned) [Compound 708] | 1000 to 30000 | 100 to 1000 | – | – | – |
| 1-[3-(1-methyl-4-pyrazolyl)-2-{4- [(o-nitrophenyl)methyl]-1- piperazinyl}-5,6,7,8-tetrahydro- 1,4,6-triaza-6-naphthyl]-1- ethanone [Compound 527] | – | – | – | – | IC50 (GPR3; [4]): 1000 to 30000 nM; IC50 (GPR6; [5]): 100 to 1000 nM |
| CC(=O)N1CCc2nc(N3CCC(COc4cccc(F)c4)C3)c(-c3cnn(C)c3)nc2C1 (stereo not shown) [Compound 324, 1-(2-{3-[(3-fluorophenoxy)methyl]pyrrolidin-1-yl}-3-(1-methyl-1H-pyrazol-4-yl)-5H,6H,7H,8H-pyrido[3,4-b]pyrazin-6-yl)ethan-1-one] | 1000 to 30000 | 1000 to 30000 | – | – | – |
| CC(=O)N1CCc2nc(N3CCN(C(=O)c4ccc(Cl)c(C)c4)CC3)c(-c3cnn(C)c3)nc2C1 [Compound 539, 1-{2-[4-(4-chloro-3-toluoyl)-1-piperazinyl]-3-(1-methyl-4-pyrazolyl)-5,6,7,8-tetrahydro-1,4,6-triaza-6-naphthyl}-1-ethanone] | – | – | – | – | IC50 (GPR3; [4]): 1000 to 30000 nM; IC50 (GPR6; [5]): 1000 to 30000 nM |
| CN(C)C(=O)N1CCc2nc(N3CCC(Oc4ccc(F)cc4F)CC3)c(-c3cnn(C4CCCCO4)c3)nc2C1 (stereo not shown) [Compound 182, 2-[4-(2,4-difluorophenoxy)piperidin-1-yl]-N,N-dimethyl-3-[1-(oxan-2-yl)-1H-pyrazol-4-yl]-5H,6H,7H,8H-pyrido[3,4-b]pyrazine-6-carboxamide] | – | – | 1000 to 30000 | 100 to 1000 | – |

More lines, main results first:

| IC50 (GPR3; procedure of Example 24) [nM] | IC50 (GPR6; procedure of Example 24) [nM] | IC50 (GPR3; [1]) [nM] | IC50 (GPR6; [2]) [nM] | Compound | other results |
| --- | --- | --- | --- | --- | --- |
| 1000 to 30000 | < 100 | – | – | Cn1cc(-c2nc3cc(C(O)C(C)(C)O)ncc3nc2N2CCN(Cc3ccc(F)cc3F)CC2)cn1 (stereo not shown) [Compound 268, 1-(3-{4-[(2,4-difluorophenyl)methyl]piperazin-1-yl}-2-(1-methyl-1H-pyrazol-4-yl)pyrido[3,4-b]pyrazin-7-yl)-2-methylpropane-1,2-diol] | – |
| 1000 to 30000 | 1000 to 30000 | – | – | CCn1cc(-c2nc3cnc(NC(C)=O)cc3nc2N2CCC(Oc3ccc(F)cc3F)CC2)cn1 [Compound 367, N-{2-[4-(2,4-difluorophenoxy)piperidin-1-yl]-3-(1-ethyl-1H-pyrazol-4-yl)pyrido[3,4-b]pyrazin-7-yl}acetamide] | – |
| – | – | 1000 to 30000 | 1000 to 30000 | CC(=O)N1CCc2nc(N3CCC(Oc4ccccc4)C3)c(-c3cnn(C)c3)nc2C1 (stereo not shown) [Compound 418, 1-[3-(1-methyl-1H-pyrazol-4-yl)-2-(3-phenoxypyrrolidin-1-yl)-5H,6H,7H,8H-pyrido[3,4-b]pyrazin-6-yl]ethan-1-one] | – |
| 1000 to 30000 | < 100 | – | – | CC(C)(O)[C@@H](O)c1cc2nc(N3CCN(Cc4ccccc4F)CC3)c(-c3cnn(CF)c3)nc2cn1 (single isomer, unassigned) [Compound 647] | – |
| – | – | 1000 to 30000 | 100 to 1000 | CC(=O)N1CCc2nc(N3CCC(Oc4ccc(F)cc4F)CC3)c(-c3cncc(Cl)c3)nc2C1 [Compound 136, 1-[3-(5-chloropyridin-3-yl)-2-[4-(2,4-difluorophenoxy)piperidin-1-yl]-5H,6H,7H,8H-pyrido[3,4-b]pyrazin-6-yl]ethan-1-one] | – |
| 1000 to 30000 | 100 to 1000 | – | – | CCn1cc(-c2nc3cnc(C)cc3nc2N2CCC(Oc3ccc(F)cc3F)CC2)cn1 [Compound 313, 4-(2,4-difluorophenoxy)-1-[3-(1-ethyl-1H-pyrazol-4-yl)-7-methylpyrido[3,4-b]pyrazin-2-yl]piperidine] | – |
| 1000 to 30000 | 100 to 1000 | – | – | CC(=O)N1CCc2nc(N3CCN(Cc4cc(Cl)c(F)cc4F)CC3)c(-c3cnn(C)c3)nc2C1 [Compound 360, 1-(2-{4-[(5-chloro-2,4-difluorophenyl)methyl]piperazin-1-yl}-3-(1-methyl-1H-pyrazol-4-yl)-5H,6H,7H,8H-pyrido[3,4-b]pyrazin-6-yl)ethan-1-one] | – |
| – | – | 1000 to 30000 | 1000 to 30000 | CC(=O)N1CCc2nc(N3CCC(Oc4ccc(F)cc4C)CC3)c(-c3cnn(C)c3)nc2C1 [Compound 432, 1-{2-[4-(4-fluoro-2-methylphenoxy)piperidin-1-yl]-3-(1-methyl-1H-pyrazol-4-yl)-5H,6H,7H,8H-pyrido[3,4-b]pyrazin-6-yl}ethan-1-one] | – |
| – | – | 1000 to 30000 | ≥ 30000 | CC(=O)N1CCc2nc(N3CCC(C(=O)Nc4ccc(F)cc4)C3)c(-c3cnn(C)c3)nc2C1 (stereo not shown) [Compound 391, 1-[6-acetyl-3-(1-methyl-1H-pyrazol-4-yl)-5H,6H,7H,8H-pyrido[3,4-b]pyrazin-2-yl]-N-(4-fluorophenyl)pyrrolidine-3-carboxamide] | – |
| – | – | ≥ 30000 | ≥ 30000 | Cn1cc(-c2nc3cnccc3nc2N2CCN(Cc3ccc(F)cc3F)CC2=O)cn1 [Compound 259, 4-(2,4-difluorobenzyl)-1-(3-(1-methyl-1H-pyrazol-4-yl)pyrido[3,4-b]pyrazin-2-yl)piperazin-2-one] | – |
| 1000 to 30000 | 100 to 1000 | – | – | CC(C)(O)[C@@](C)(O)c1cc2nc(-c3cnn(CF)c3)c(N3CCN(Cc4ccc(F)cc4F)CC3)nc2cn1 (single isomer, unassigned) [Compound 711] | – |
| 100 to 1000 | < 100 | – | – | CNc1cncc(-c2nc3c(nc2N2CCC(Oc4ccc(F)cc4F)CC2)CCN(C(C)=O)C3)n1 [Compound 329, 1-{2-[4-(2,4-difluorophenoxy)piperidin-1-yl]-3-[6-(methylamino)pyrazin-2-yl]-5H,6H,7H,8H-pyrido[3,4-b]pyrazin-6-yl}ethan-1-one] | – |
